# In PubChem BioAssay (NCI):
#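 Cultured in 96-well plates, cells were exposed to test compound for 48 hours across five concentrations. The concentration for 50% growth inhibition is given as GI50. TGI: concentration producing complete growth inhibition.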
# Assays:
# Test in all cases: NCI anticancer screen, dose series, 48 h
# SW-620 colon = tested on: SW-620 colon
# A549 NSCLC = tested on: A549 NSCLC
# BT-549 breast = tested on: BT-549 breast
# CAKI-1 renal = tested on: CAKI-1 renal
# NCI/ADR-RES ovarian = tested on: NCI/ADR-RES ovarian
# HL-60(TB) leukemia = tested on: HL-60(TB) leukemia
# IGROV1 ovarian = tested on: IGROV1 ovarian
# SR leukemia = tested on: SR leukemia
# UO-31 renal = tested on: UO-31 renal
# DU-145 prostate = tested on: DU-145 prostate
# A498 renal = tested on: A498 renal
# SF-268 CNS = tested on: SF-268 CNS
# UACC-62 melanoma = tested on: UACC-62 melanoma
# HCT-116 colon = tested on: HCT-116 colon
# HOP-92 NSCLC = tested on: HOP-92 NSCLC
# SNB-19 CNS = tested on: SNB-19 CNS
# SK-OV-3 ovarian = tested on: SK-OV-3 ovarian
# LOX IMVI melanoma = tested on: LOX IMVI melanoma
# HCC-2998 colon = tested on: HCC-2998 colon
# HOP-62 NSCLC = tested on: HOP-62 NSCLC
# K-562 leukemia = tested on: K-562 leukemia
# SK-MEL-2 melanoma = tested on: SK-MEL-2 melanoma
# UACC-257 melanoma = tested on: UACC-257 melanoma
# ACHN renal = tested on: ACHN renal
# MDA-MB-435 = tested on: MDA-MB-435
# TK-10 renal = tested on: TK-10 renal
# SK-MEL-28 melanoma = tested on: SK-MEL-28 melanoma
# SK-MEL-5 melanoma = tested on: SK-MEL-5 melanoma
smiles,measurement,setting,value
CN(C)CC(C(=O)Cc1ccccc1)c1ccccc1 (stereo unspecified),GI50,SW-620 colon,1.79 µM
same,TGI,SW-620 colon,3.59 µM
same,GI50,A549 NSCLC,16.7 µM
same,TGI,A549 NSCLC,35.5 µM
same,GI50,BT-549 breast,3.18 µM
same,TGI,BT-549 breast,8.74 µM
same,GI50,CAKI-1 renal,1.57 µM
same,TGI,CAKI-1 renal,3.01 µM
same,GI50,NCI/ADR-RES ovarian,4.4 µM
same,TGI,NCI/ADR-RES ovarian,23.9 µM
same,GI50,HL-60(TB) leukemia,1.83 µM
same,TGI,HL-60(TB) leukemia,5.75 µM
same,GI50,IGROV1 ovarian,11.6 µM
same,TGI,IGROV1 ovarian,26.4 µM
same,GI50,SR leukemia,1.24 µM
same,TGI,SR leukemia,7.55 µM
same,GI50,UO-31 renal,1.69 µM
same,TGI,UO-31 renal,3.32 µM
same,GI50,DU-145 prostate,1.73 µM
same,TGI,DU-145 prostate,4.72 µM
same,GI50,A498 renal,12.4 µM
same,TGI,A498 renal,25 µM
same,GI50,SF-268 CNS,8.25 µM
same,TGI,SF-268 CNS,22.6 µM
same,GI50,UACC-62 melanoma,6.16 µM
same,TGI,UACC-62 melanoma,20.1 µM
same,GI50,HCT-116 colon,1.72 µM
same,TGI,HCT-116 colon,3.3 µM
same,GI50,HOP-92 NSCLC,2.78 µM
same,TGI,HOP-92 NSCLC,7.5 µM
same,GI50,SNB-19 CNS,15 µM
same,TGI,SNB-19 CNS,30 µM
same,GI50,SK-OV-3 ovarian,18.4 µM
same,TGI,SK-OV-3 ovarian,36.2 µM
same,GI50,LOX IMVI melanoma,1.39 µM
same,TGI,LOX IMVI melanoma,3.04 µM
same,GI50,HCC-2998 colon,15.9 µM
same,TGI,HCC-2998 colon,30.3 µM
same,GI50,HOP-62 NSCLC,6.87 µM
same,TGI,HOP-62 NSCLC,21 µM
same,GI50,K-562 leukemia,1.62 µM
same,TGI,K-562 leukemia,> 100 µM
same,GI50,SK-MEL-2 melanoma,2.54 µM
same,TGI,SK-MEL-2 melanoma,5.57 µM
same,GI50,UACC-257 melanoma,1.79 µM
same,TGI,UACC-257 melanoma,4.25 µM
same,GI50,ACHN renal,1.97 µM
same,TGI,ACHN renal,3.53 µM
same,GI50,MDA-MB-435,3.09 µM
same,TGI,MDA-MB-435,12.2 µM
same,GI50,TK-10 renal,1.56 µM
same,TGI,TK-10 renal,3.1 µM
same,GI50,SK-MEL-28 melanoma,3.22 µM
same,TGI,SK-MEL-28 melanoma,10.2 µM
same,GI50,SK-MEL-5 melanoma,11.6 µM
same,TGI,SK-MEL-5 melanoma,25.2 µM
